pIC50: −log10 of the molar value. Active and inactive are the calls of the source. No cut-off for these calls is given here.
How the values were obtained:
[1] = tested on: DU-145; assay: Growth inhibition of human DU-145 cells incubated for 48 hrs by sulforhodamine B spectrophotometric assay; type: functional
[2] = tested on: SNB-19; assay: Growth inhibition against human SNB-19 cells assessed as lethal concentration incubated for 48 hrs by sulforhodamine B spectrophotometric assay; type: functional; conditions: read-out: LC50 (the source's name)
[3] = tested on: ACHN; assay: Growth inhibition against human ACHN cells assessed as lethal concentration incubated for 48 hrs by sulforhodamine B spectrophotometric assay; type: functional; conditions: read-out: LC50 (the source's name)
[4] = tested on: UO-31; assay: Growth inhibition against human UO-31 cells assessed as total growth inhibitory concentration incubated for 48 hrs by sulforhodamine B spectrophotometric assay; type: functional
[5] = tested on: A549; assay: Growth inhibition of human A549 cells incubated for 48 hrs by sulforhodamine B spectrophotometric assay; type: functional
[6] = tested on: NCI-H322M; assay: Anticancer activity against human NCI-H322M cells assessed as cell growth at 10 uM incubated for 48 hrs by sulforhodamine B assay; type: functional; conditions: read-out: Activity
[7] = tested on: T47D; assay: Growth inhibition against human T47D cells assessed as lethal concentration incubated for 48 hrs by sulforhodamine B spectrophotometric assay; type: functional; conditions: read-out: LC50 (the source's name)
[8] = tested on: DU-145; assay: Growth inhibition against human DU-145 cells assessed as lethal concentration incubated for 48 hrs by sulforhodamine B spectrophotometric assay; type: functional; conditions: read-out: LC50 (the source's name)
[9] = tested on: OVCAR-3; assay: Growth inhibition against human OVCAR-3 cells assessed as lethal concentration incubated for 48 hrs by sulforhodamine B spectrophotometric assay; type: functional; conditions: read-out: LC50 (the source's name)
[10] = tested on: U-251; assay: Growth inhibition of human U-251 cells incubated for 48 hrs by sulforhodamine B spectrophotometric assay; type: functional
[11] = tested on: HCT-15; assay: Growth inhibition against human HCT-15 cells assessed as total growth inhibitory concentration incubated for 48 hrs by sulforhodamine B spectrophotometric assay; type: functional
[12] = tested on: MDA-MB-231; assay: Induction of apoptosis in human MDA-MB-231 cells assessed as increase in caspase-9 level at 10 uM incubated for 24 hrs by flow cytometry analysis; type: functional
[13] = tested on: UACC-62; assay: Growth inhibition of human UACC-62 cells incubated for 48 hrs by sulforhodamine B spectrophotometric assay; type: functional
[14] = Acute toxicity in C57BL/6 mouse assessed as ratio of kidney weight to body weight at 20 mg/kg,ip administration and observed after 22 days (reference value: 1.39 +/- 0.09); type: organism-based; conditions: in vivo, 528 h, time 22 day
[15] = tested on: UACC-257; assay: Growth inhibition against human UACC-257 cells assessed as total growth inhibitory concentration incubated for 48 hrs by sulforhodamine B spectrophotometric assay; type: functional
[16] = tested on: Malme-3M; assay: Growth inhibition against human Malme-3M cells assessed as total growth inhibitory concentration incubated for 48 hrs by sulforhodamine B spectrophotometric assay; type: functional
[17] = tested on: M14; assay: Anticancer activity against human M14 cells assessed as cell growth at 10 uM incubated for 48 hrs by sulforhodamine B assay; type: functional; conditions: read-out: Activity
[18] = Acute toxicity in C57BL/6 mouse assessed as lymphocyte count at 20 mg/kg,ip administration and observed after 22 days; type: organism-based; conditions: in vivo, 528 h, time 22 day
[19] = tested on: SW-620; assay: Growth inhibition against human SW620 cells assessed as lethal concentration incubated for 48 hrs by sulforhodamine B spectrophotometric assay; type: functional; conditions: read-out: LC50 (the source's name)
[20] = tested on: MCF7; assay: Growth inhibition against human MCF7 cells assessed as lethal concentration incubated for 48 hrs by sulforhodamine B spectrophotometric assay; type: functional; conditions: read-out: LC50 (the source's name)
[21] = tested on: RXF 393; assay: Growth inhibition against human RXF 393 cells assessed as lethal concentration incubated for 48 hrs by sulforhodamine B spectrophotometric assay; type: functional; conditions: read-out: LC50 (the source's name)
[22] = Cytotoxicity against human HaCaT cells assessed as cell growth inhibition incubated for 72 hrs by MTT assay; type: toxicity, cell-based; conditions: HaCaT cells
[23] = tested on: TK-10; assay: Growth inhibition against human TK-10 cells assessed as total growth inhibitory concentration incubated for 48 hrs by sulforhodamine B spectrophotometric assay; type: functional
[24] = tested on: SNB-19; assay: Growth inhibition of human SNB-19 cells incubated for 48 hrs by sulforhodamine B spectrophotometric assay; type: functional
[25] = Antileukemic activity against human CLL cell assessed as cell growth inhibition incubated for 72 hrs during remission period by MTT assay; type: functional, cell-based
[26] = tested on: MOLT-4; assay: Growth inhibition against human MOLT-4 cells assessed as total growth inhibitory concentration incubated for 48 hrs by sulforhodamine B spectrophotometric assay; type: functional
[27] = tested on: BT-549; assay: Anticancer activity against human BT-549 cells assessed as cell growth at 10 uM incubated for 48 hrs by sulforhodamine B assay; type: functional; conditions: read-out: Activity
[28] = tested on: HL-60; assay: Growth inhibition against human HL-60 cells assessed as total growth inhibitory concentration incubated for 48 hrs by sulforhodamine B spectrophotometric assay; type: functional
[29] = tested on: KB 3-1; assay: Cytotoxicity against human KB 3-1 cells assessed as cell growth inhibition incubated for 72 hrs by MTT assay; type: functional, cell-based; conditions: KB 3-1, 72 h
[30] = tested on: KB 3-1; assay: Induction of apoptosis in human KB 3-1 cells assessed as increase in calnexin protein expression at 0.5 to 5 uM incubated for 3 hrs by Western blotting assay; type: functional, cell-based; conditions: dose 0.5-5 µM
[31] = tested on: MDA-MB-231; assay: Induction of apoptosis in human MDA-MB-231 cells assessed as increase in caspase-9 level at 5 uM incubated for 24 hrs by flow cytometry analysis; type: functional
[32] = tested on: A498; assay: Growth inhibition of human A498 cells incubated for 48 hrs by sulforhodamine B spectrophotometric assay; type: functional
[33] = tested on: T47D; assay: Growth inhibition against human T47D cells assessed as total growth inhibitory concentration incubated for 48 hrs by sulforhodamine B spectrophotometric assay; type: functional
[34] = tested on: NCI/ADR-RES; assay: Growth inhibition against human NCI/ADR-RES cells assessed as lethal concentration incubated for 48 hrs by sulforhodamine B spectrophotometric assay; type: functional; conditions: read-out: LC50 (the source's name)
[35] = tested on: MDA-MB-468; assay: Growth inhibition of human MDA-MB-468 cells incubated for 48 hrs by sulforhodamine B spectrophotometric assay; type: functional
[36] = tested on: MDA-MB-231; assay: Growth inhibition against human MDA-MB-231 cells assessed as total growth inhibitory concentration incubated for 48 hrs by sulforhodamine B spectrophotometric assay; type: functional
[37] = tested on: MCF7; assay: Growth inhibition of human MCF7 cells incubated for 48 hrs by sulforhodamine B spectrophotometric assay; type: functional
[38] = Acute toxicity in C57BL/6 mouse assessed as ratio of heart weight to body weight at 20 mg/kg,ip administration and observed after 22 days (reference value: 0.62 +/- 0.08); type: organism-based; conditions: in vivo, 528 h, time 22 day
[39] = tested on: SN12C; assay: Growth inhibition against human SN12C cells assessed as total growth inhibitory concentration incubated for 48 hrs by sulforhodamine B spectrophotometric assay; type: functional
[40] = tested on: SNB-75; assay: Growth inhibition of human SNB-75 cells incubated for 48 hrs by sulforhodamine B spectrophotometric assay; type: functional
[41] = tested on: HCT-116; assay: Growth inhibition against human HCT-116 cells assessed as lethal concentration incubated for 48 hrs by sulforhodamine B spectrophotometric assay; type: functional; conditions: read-out: LC50 (the source's name)
[42] = tested on: SF-539; assay: Growth inhibition against human SF-539 cells assessed as lethal concentration incubated for 48 hrs by sulforhodamine B spectrophotometric assay; type: functional; conditions: read-out: LC50 (the source's name)
[43] = tested on: CCRF-CEM; assay: Induction of cell cycle arrest in human CCRF-CEM cells assessed as accumulation of cells at G0/G1 phase at 4.14 uM incubated for 24 hrs by propidium iodide staining based flow cytometry analysis (reference value: 38.68 +/- 0.75%); type: functional
[44] = tested on: M14; assay: Growth inhibition against human M14 cells assessed as lethal concentration incubated for 48 hrs by sulforhodamine B spectrophotometric assay; type: functional; conditions: read-out: LC50 (the source's name)
[45] = tested on: SF-268; assay: Growth inhibition against human SF-268 cells assessed as total growth inhibitory concentration incubated for 48 hrs by sulforhodamine B spectrophotometric assay; type: functional

O=C1C2=C(C(=O)c3c(O)cccc31)C(c1ccco1)c1sc(=O)[nH]c1S2 (stereo not given)
GI50 [1]: 1550 nM
CC50 [2]: 26.1 µM
CC50 [3]: 40.1 µM
TGI [4]: 13.5 µM
GI50 [5]: 1780 nM
growth at 10 µM [6]: -97.7%
CC50 [7]: > 100 µM
CC50 [8]: 5.81 µM
CC50 [9]: > 100 µM
GI50 [10]: 3.07 µM
TGI [11]: 3.88 µM
Activity [12]: 32.6%
GI50 [13]: 1760 nM
Ratio [14]: 1.28
TGI [15]: 3.26 µM
TGI [16]: 2000 nM
growth at 10 µM [17]: -97.6%
Activity [18]: 67.05%
CC50 [19]: 52.7 µM
CC50 [20]: 8.04 µM
CC50 [21]: 20.1 µM
IC50 at 72 h [22]: 37.2 µM
TGI [23]: 26.4 µM
GI50 [24]: 2600 nM
pIC50 [25]: 4.55
TGI [26]: 9.88 µM
growth at 10 µM [27]: -96.8%
TGI [28]: 6.09 µM
pIC50 [29]: 6.12
Activity [30]: inactive
Activity [31]: 15%
GI50 [32]: 3.48 µM
TGI [33]: 13 µM
CC50 [34]: > 100 µM
GI50 [35]: 2010 nM
TGI [36]: 9.08 µM
GI50 [37]: 1390 nM
Ratio [38]: 0.51
TGI [39]: 3.49 µM
GI50 [40]: 3.17 µM
CC50 [41]: > 100 µM
CC50 [42]: 7.05 µM
Activity [43]: 34.34%
CC50 [44]: 5.26 µM
TGI [45]: 19.2 µM
